The source of these data is US8884011B2, “Nucleotide analogues as precursor molecules for antivirals” (Centre National de la Recherche Scientifique-CNRS, priority 2006, dated 2014).

SMILES strings stand for the structures.

One data set deals with influenza A (H3N2). As to the kind of experiment: Virus panel: influenza A (H3N2) in MDCK cells. It counts as cell-based. As to conditions: read-out: in vitro antiviral activity (EC50), none up to. From the text:
(§1) influenza A (H1N1), influenza A (H3N2), influenza B, in MDCK cells;

The subject of a further data set is Reovirus-1. As to the kind of experiment: Virus panel, CPE assay: Reovirus-1 in Vero cells. The format is cell-based. As to conditions: Reovirus-1, Vero cells; read-out: in vitro antiviral activity (EC50), none up to.
For data set [1], the system named is HBV. Briefly: Anti-HBV test in infected HepAD38 cells (intracellular viral DNA by Q-PCR). The format is cell-based. As to conditions: Hepatitis B virus, 144 h; infected HepAD38 cells; 50% reduction of viral DNA; day 6 post-induction. Here is the method:
These are hepatoma cells that have been stably transfected with a cDNA copy of the pregenomic RNA of wild-type virus. Withdrawal of tetracycline from the culture medium results in the initiation of viral replication. This offers the advantage, in contrast to the Hep G2.2.15 cell lines commonly used, that there is no, or very limited background viral DNA synthesis. Cells were cultured at 37° C. in a humidified 5% CO2/air atmosphere in seeding medium, DMEM/Ham's F12 (50/50) supplemented with 10% (v/v) heat-inactivated fetal calf serum, 100 IU/ml penicillin, 50 μg/ml streptomycin, 100 Ξg/ml kanamycin, 400 μg/ml G418, and 0.3 μg/ml tetracycline. […] After 2-3 days the cultures were induced for viral production by washing with prewarmed PBS and were fed with […] assay medium (seeding medium without tetracycline and G418) with or without the antiviral compounds. Medium was changed after 3 days. The antiviral effect was quantified by measuring levels of intracellular viral DNA at day 6 post-induction, by a real time quantitative PCR (Q-PCR) method. Total cellular DNA was extracted from the cells by means of a commercial kit. […] The reaction was analyzed using a SDS 7000. A plasmid containing the full length insert of the HBV genome was used to prepare the standard curve. The amount of viral DNA produced in treated cultures was expressed as a percentage of the mock treated samples. […] The cytostatic effect of the various compounds was assessed employing the parent hepatoma cell line HepG2. The effect of the compounds on exponentially growing HepG2 cells was evaluated by means of the MTS method. Briefly, cells were seeded at a density of 3000/well (96 well plate) and were allowed to proliferate for 3 days in the absence or presence of compounds after which the optical density was measured with a 96-well plate reader and cell density was determined.

The subject of another data set is Sindbis virus. Briefly: Virus panel, CPE assay: Sindbis virus in Vero cells. The format is cell-based. The conditions noted are these: read-out: in vitro antiviral activity (EC50), none up to.
Data set [2] is described as follows: Cytostatic effect on parent hepatoma cell line HepG2 (MTS method). As to conditions: human.
The subject of the next data set is HIV-1-LAI. Briefly: Anti-HIV test in CMSP cultures infected by HIV-1-LAI (RT activity in supernatants). It counts as cell-based. As to conditions: Human immunodeficiency virus 1, 168 h, read-out: EC50 (μM) HIV-1 (LAI).
The next data set relates to HIV-1 (IIIB). As to the kind of experiment: Anti-HIV test in CEM cell cultures, syncytium formation, HIV-1 (IIIB). The conditions noted are these: Human immunodeficiency virus 1, IIIB, CCRF-CEM, read-out: EC50 (μM) HIV-1. It counts as cell-based. Here is the method:
Briefly, CEM cells (4.5×10^5 cells per ml) were suspended in fresh culture medium and infected with HIV-1 at 100 CCID50 per ml of cell suspension. Then, 100 μl of the infected cell suspension were transferred to microplate wells, mixed with 100 μl of the appropriate dilutions of the test compounds, and further incubated at 37° C. After 4 to 5 days, giant cell formation was recorded microscopically in the CEM cell cultures.

For data set [3], the system named is HBV. As to the kind of experiment: Anti-HBV test in infected Huh7 cells. It counts as cell-based. The conditions noted are these: Hepatitis B virus, Huh-7, read-out: EC50 (μM) HBV.
Data set [4] can be described thus: Cytotoxicity in CEM cell cultures (cell density). The format is cell-based. The conditions noted are these: human, 50% reduction in cell density, read-out: TC50 (the source's name).
Another data set relates to Coxsackie B4. As to the kind of experiment: Virus panel, CPE assay: Coxsackie B4 virus in Hela and Vero cells. The format is cell-based. As to conditions: Enterovirus B, read-out: in vitro antiviral activity (EC50), none up to.
The subject of a further data set is influenza A (H1N1). As to the kind of experiment: Virus panel: influenza A (H1N1) in MDCK cells. It counts as cell-based. The conditions noted are these: read-out: in vitro antiviral activity (EC50), none up to.
From the text: as §1

Data set [5] is described as follows: Cytotoxicity by MTT test in cultures of uninfected CMSP. The conditions noted are these: human.
The subject of data set [6] is vesicular stomatitis virus. As to the kind of experiment: microbe, parasite or virus in culture. The format is cell-based. The conditions noted are these: HEL, read-out: in vitro antiviral activity (EC50), none up to.
The test system of data set [7] is Herpes simplex virus-2 (G). Briefly: Virus panel, CPE assay: Herpes simplex virus-2 (G) in HEL cells. It counts as cell-based. As to conditions: Human alphaherpesvirus 2.
For another data set, the system named is influenza B. As to the kind of experiment: Virus panel: influenza B in MDCK cells. The format is cell-based. The conditions noted are these: read-out: in vitro antiviral activity (EC50), none up to.
From the text: as §1

Data set [8] in a line: Stability in complete medium (RPMI 1640 containing 10% heat-inactivated fetal calf serum), HPLC. The format is in vitro ADME. The conditions noted are these: for half-life at 0.1 mM: bovine, serum, initial concentration 0.1 mM, read-out: t1/2 complete medium; for half-life at 0.1 mM / product intact: 37° C.; for product intact: complete medium, degradation into the phosphonate; for degradation: culture medium. As for the experimental part: (§2) Media and preparation of cell extracts. Culture medium was composed by RPMI 1640 containing 10% (v/v) heat-inactivated fetal calf serum and stored at −80° C. CEM-SS cell extracts were prepared according to a published procedure (Puech, F. et al. Antiv. Res. 1993, 22, 155-174). Exponentially growing CEM-SS cells were recovered by centrifugation (500 g, 4° C., 4 min), washed twice with PBS and resuspended in 10 mM Tris-HCl, 140 mM KCl (pH 7.4), at the concentration of 30×10^6 cells/mL. Cells were lyzed by ultrasonic treatment and cellular debris were removed by centrifugation (10000 g, 4° C., 20 min). The supernatant containing soluble proteins (3 mg/mL) was stored at −80° C.
Kinetic data and decomposition pathways for compounds 6 and 11 were studied at 37° C. (a) in complete medium (RPMI 1640 containing 10% heat-inactivated fetal calf serum (b) in total cells extracts (CEM-SS). For each kinetic study, the compound solution was diluted with a freshly thawed aliquot of the considered medium to obtain an initial concentration of 0.1 mM. The mixture was incubated at 37° C. and for the required time, an aliquot (10% solution) was taken and immediately frozen at −80° C. for further HPLC analysis. The crude sample was injected into the precolumn and eluted with buffer A during 5 min. Then, the switching valve for connecting the precolumn to the column was activated, and a linear gradient from buffer A to buffer B, increasing buffer B from 0% at 0 min to 20% at 40 min is applied. The retention times were 6, 26 min; 11, 29.5 min, PMEA, 24.3 min and (R)-PMPA, 27.8 min.
All the compounds were analyzed under the same conditions. The amount of remaining parent compound at each time point was used to determine the half-life of the compound. The product of degradation from parent compound was determined by comparison with corresponding references.

For data set [9], the system named is respiratory syncytial virus. As to the kind of experiment: Virus panel, CPE assay: respiratory syncytial virus in Hela cells. It counts as cell-based. As to conditions: human respiratory syncytial virus, read-out: in vitro antiviral activity (EC50), none up to.
The nature of data set [10]: Stability in total cell extracts (CEM-SS), HPLC. The format is in vitro ADME. The conditions noted are these: 37° C., 0.1 mM. As for the experimental part:
as §2
Kinetic data and decomposition pathways for compounds 6 and 11 were studied at 37° C. […]
All the compounds were analyzed under the same conditions. […] The product of degradation from parent compound was determined by comparison with corresponding references.

A further data set relates to HIV-2 (ROD). Briefly: Anti-HIV test in CEM cell cultures, syncytium formation, HIV-2 (ROD). The conditions noted are these: Human immunodeficiency virus 2, CCRF-CEM, read-out: EC50 (μM) HIV-2. The format is cell-based.
A further data set deals with Feline Herpes virus. As to the kind of experiment: Virus panel: Feline Herpes virus in CRFK cells. The format is cell-based. From the text: Feline Corona virus and Feline Herpes virus in CRFK cells.
In the next data set the test system is Parainfluenza-3-virus. As to the kind of experiment: Virus panel, CPE assay: Parainfluenza-3-virus in Vero cells. The format is cell-based. The conditions noted are these: read-out: in vitro antiviral activity (EC50), none up to.
The test system of the next data set is Punta Toro virus. As to the kind of experiment: Virus panel, CPE assay: Punta Toro virus in Vero cells. The format is cell-based. The conditions noted are these: read-out: in vitro antiviral activity (EC50), none up to.
The next data set concerns CMSP (uninfected cells). As to the kind of experiment: Cytotoxicity by MTT test in cultures of uninfected CMSP. As to conditions: text statement to Table VII.

Consider `Nc1ncnc2c1ncn2CCOCP(=O)(O)S` (centres unmarked) [Compound 6, 9-[2-(thiophosphonomethoxy)ethyl]adenine], for which the EC50 was greater than 200 µM in the data set on influenza A (H3N2); greater than 200 µM in the data set on Reovirus-1; 9.6 µM in the data set with HBV [1]; greater than 200 µM in the data set with Sindbis virus; 7 µM in the data set on HIV-1-LAI; 12.2 µM in the data set on HIV-1 (IIIB). For the same molecule, the EC50 is 4.5 µM in the data set with HBV [3]; greater than 200 µM in the data set on Coxsackie B4; greater than 200 µM in the data set with influenza A (H1N1); greater than 200 µM in data set [6]; 58 µM in data set [7]; greater than 200 µM in the data set on influenza B. Besides, the concentration for a half-maximal effect (EC50) in [9] was greater than 200 µM; with HIV-2 (ROD), 10.4 µM; in the data set with Feline Herpes virus, 38 µM; with Parainfluenza-3-virus, greater than 200 µM; in the data set with Punta Toro virus it was greater than 200 µM. In addition, in data set [2], the CC50 at 3 days is greater than 166 µM. Moreover, in data set [4], the CC50 was greater than 332 µM. Besides, the CC50 at 7 days in [5] is greater than 42 µM. The half-life at 0.1 mM in [8] was greater than 24 h. Moreover, the product intact entry in [8] is “^a: product 80% intact (degradation into PMEA)”. For the same molecule, the degradation in [8] amounted to 20%. The t1/2 cell extracts entry in data set [10] was “stable^c”.

For `C[C@H](Cn1cnc2c(N)ncnc21)OCP(=O)(O)S` (stereo partly drawn) [Compound 11, (R)-9-[2-(thiophosphonomethoxy)propyl]adenine], the EC50 was greater than 200 µM in the data set on influenza A (H3N2); greater than 200 µM with Reovirus-1; 2.26 µM with HBV [1]; greater than 200 µM in the data set with Sindbis virus; 1.6 µM with HIV-1-LAI; 11.1 µM in the data set on HIV-1 (IIIB). Moreover, the EC50 with HBV [3] was 5 µM; in the data set on Coxsackie B4, greater than 200 µM; in the data set on influenza A (H1N1), greater than 200 µM; in data set [6] it was greater than 200 µM; in the data set on influenza B, greater than 200 µM; in data set [9], greater than 200 µM. The EC50 was 8.6 µM in the data set on HIV-2 (ROD), greater than 200 µM in the data set with Parainfluenza-3-virus and greater than 200 µM with Punta Toro virus. Besides, in [2], the CC50 at 3 days was greater than 174 µM. Also, in [4], the CC50 was greater than 165 µM. For the same molecule, in the data set on CMSP (uninfected cells), the “not cytotoxic (highest concentration tested)” value was greater than 200 µM. In addition, the CC50 at 7 days in data set [5] is greater than 100 µM. For the same molecule, in data set [8], the half-life at 0.1 mM was greater than 24 h. Further, the product intact entry in [8] was “^b: product 77% intact (degradation into PMPA)”. Further, the degradation in [8] was 20%. The t1/2 cell extracts result in data set [10] is listed as “stable^c”.
